From ChEMBL document CHEMBL1201862, “PubChem BioAssay data set” (2004)
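Briefly, cells in 96-well plates were exposed to five compound concentrations for 48 h, and endpoints were estimated by linear interpolation. Here, GI50 denotes the concentration required for 50% inhibition of growth.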 Active and inactive are the calls of the source. Cut-off read from the data, not from the text of the source: active = GI50 up to about 1.1 µM and inactive = higher.

What was measured:
Assay in all cases: DTP human tumour cell line panel, 48 h
PC-3 = test system: PC-3
MCF7 = test system: MCF7
A549 = test system: A549
UACC-62 = test system: UACC-62
KM12 = test system: KM12
SN12C = test system: SN12C
HCC 2998 = test system: HCC 2998
SF-295 = test system: SF-295
K562 = test system: K562
EKVX = test system: EKVX
SR = test system: SR
NCI-H460 = test system: NCI-H460
OVCAR-3 = test system: OVCAR-3
MDA-MB-231 = test system: MDA-MB-231
HOP-62 = test system: HOP-62
NCI-H23 = test system: NCI-H23
SF-539 = test system: SF-539
HT-29 = test system: HT-29
MDA-MB-435 = test system: MDA-MB-435

Compound | GI50 (PC-3) | GI50 (MCF7) | GI50 (A549) | GI50 (UACC-62) | GI50 (KM12) | GI50 (SN12C) | GI50 (HCC 2998) | GI50 (SF-295) | GI50 (K562) | GI50 (EKVX) | GI50 (SR) | GI50 (NCI-H460) | GI50 (OVCAR-3) | GI50 (MDA-MB-231) | GI50 (HOP-62) | GI50 (NCI-H23) | GI50 (SF-539) | GI50 (HT-29) | GI50 (MDA-MB-435)
CC(=O)OCC1OC(Nn2c(=O)[nH]c3ccccc3c2=O)C(OC(C)=O)C(OC(C)=O)C1OC(C)=O (stereo unspecified) | > 100 µM (inactive) | > 100 µM (inactive) | > 100 µM (inactive) | > 100 µM (inactive) | > 100 µM (inactive) | > 100 µM (inactive) | 15 µM (inactive) | > 100 µM (inactive) | > 100 µM (inactive) | > 100 µM (inactive) | > 100 µM (inactive) | 27.2 µM (inactive) | > 100 µM (inactive) | > 100 µM (inactive) | > 100 µM (inactive) | > 100 µM (inactive) | > 100 µM (inactive) | > 100 µM (inactive) | > 100 µM (inactive)
CC(=O)OCC1OC(n2c(-c3cccs3)c3c(c(C#N)c2=S)-c2ccccc2CC3)C(OC(C)=O)C(OC(C)=O)C1OC(C)=O (stereo unspecified) | 9.04 µM (inactive) | 6.01 µM (inactive) | 13.2 µM (inactive) | 4.17 µM (inactive) | 9.14 µM (inactive) | 20.2 µM (inactive) | 8.73 µM (inactive) | 13.7 µM (inactive) | 4.37 µM (inactive) | 5.53 µM (inactive) | 3.05 µM (inactive) | 11.5 µM (inactive) | 10.4 µM (inactive) | 16.6 µM (inactive) | 11.9 µM (inactive) | 19.5 µM (inactive) | 9.57 µM (inactive) | 5.31 µM (inactive) | 2.77 µM (inactive)
CCCCC1Cc2cc(O)ccc2-c2n1c1cc(O)ccc1[n+]2C.CCCCC1Cc2cc(O)ccc2-c2n1c1ccc(O)cc1[n+]2C (stereo unspecified) | 49.5 µM (inactive) | 19 µM (inactive) | 22.9 µM (inactive) | 24.4 µM (inactive) | 28.2 µM (inactive) | 5.58 µM (inactive) | 28.2 µM (inactive) | 4.82 µM (inactive) | 17.7 µM (inactive) | 0.476 µM (active) | 56.5 µM (inactive) | 37.9 µM (inactive) | 10.7 µM (inactive) | 48 µM (inactive) | 43.8 µM (inactive) | 2.59 µM (inactive) | 40.3 µM (inactive) | 41.7 µM (inactive) | 19 µM (inactive)
CCOC(=O)[C@H](CO)NC1=C(Cl)C(=O)c2c(O)ccc(O)c2C1=O | > 10 µM (inactive) | 3.21 µM (inactive) | > 10 µM (inactive) | > 10 µM (inactive) | > 10 µM (inactive) | > 10 µM (inactive) | > 10 µM (inactive) | > 10 µM (inactive) | > 10 µM (inactive) | > 10 µM (inactive) | 5.22 µM (inactive) | > 10 µM (inactive) | > 10 µM (inactive) | > 10 µM (inactive) | > 10 µM (inactive) | > 10 µM (inactive) | > 10 µM (inactive) | 5.33 µM (inactive) | > 10 µM (inactive)
Cc1ccc(S(=O)(=O)N/N=C2\CCC3(O)CC2(C)CCC2C3CC2(C)C)cc1 (stereo unspecified) | 22 µM (inactive) | 39.6 µM (inactive) | 33.4 µM (inactive) | 36.6 µM (inactive) | 35.6 µM (inactive) | 57.8 µM (inactive) | 46.3 µM (inactive) | 33 µM (inactive) | > 100 µM (inactive) | 40.1 µM (inactive) | > 100 µM (inactive) | 19.3 µM (inactive) | 37.8 µM (inactive) | 47.8 µM (inactive) | 92.7 µM (inactive) | 49.5 µM (inactive) | 51.1 µM (inactive) | 34.4 µM (inactive) | 40.5 µM (inactive)
CCOC(=O)c1cc(-c2ccc(OC)c(OC)c2)c[nH]1 | > 10 µM (inactive) | > 10 µM (inactive) | > 10 µM (inactive) | > 10 µM (inactive) | > 10 µM (inactive) | > 10 µM (inactive) | > 10 µM (inactive) | > 10 µM (inactive) | > 10 µM (inactive) | > 10 µM (inactive) | > 10 µM (inactive) | > 10 µM (inactive) | > 10 µM (inactive) | > 10 µM (inactive) | > 10 µM (inactive) | > 10 µM (inactive) | > 10 µM (inactive) | > 10 µM (inactive) | > 10 µM (inactive)
O=C1C=CC(=O)c2c1ccc1c3ccccc3n(CCCCCCCCCCCCn3c4ccccc4c4ccc5c(c43)C(=O)C=CC5=O)c21 | > 100 µM (inactive) | > 100 µM (inactive) | > 100 µM (inactive) | > 100 µM (inactive) | > 100 µM (inactive) | > 100 µM (inactive) | > 46.5 µM (inactive) | > 100 µM (inactive) | > 72.4 µM (inactive) | > 100 µM (inactive) | 50.5 µM (inactive) | > 100 µM (inactive) | > 100 µM (inactive) | > 100 µM (inactive) | > 85.5 µM (inactive) | > 100 µM (inactive) | > 100 µM (inactive) | > 100 µM (inactive) | > 100 µM (inactive)
CC(C)(CN1CCCCC1)C(=O)CC(SCCS(=O)(=O)O)c1ccccc1 (stereo unspecified) | 22.9 µM (inactive) | 10.2 µM (inactive) | 27.4 µM (inactive) | 14 µM (inactive) | 18.5 µM (inactive) | 20 µM (inactive) | 23.3 µM (inactive) | 10.9 µM (inactive) | 2.7 µM (inactive) | 14.1 µM (inactive) | 0.466 µM (active) | 11.9 µM (inactive) | 5.87 µM (inactive) | 13.7 µM (inactive) | 30.8 µM (inactive) | > 10 µM (inactive) | 12.6 µM (inactive) | 11.4 µM (inactive) | 11.3 µM (inactive)
COC1(OC)CCCc2c1no[n+]2[O-] | > 100 µM (inactive) | > 100 µM (inactive) | > 100 µM (inactive) | > 100 µM (inactive) | > 100 µM (inactive) | > 100 µM (inactive) | > 100 µM (inactive) | > 100 µM (inactive) | > 100 µM (inactive) | > 100 µM (inactive) | > 100 µM (inactive) | > 100 µM (inactive) | > 100 µM (inactive) | > 100 µM (inactive) | > 100 µM (inactive) | > 100 µM (inactive) | > 100 µM (inactive) | > 100 µM (inactive) | > 100 µM (inactive)
CC(=O)OCCc1cc2ccccc2oc1=O | > 100 µM (inactive) | > 100 µM (inactive) | > 100 µM (inactive) | > 100 µM (inactive) | > 100 µM (inactive) | > 100 µM (inactive) | > 100 µM (inactive) | > 100 µM (inactive) | > 100 µM (inactive) | 86.7 µM (inactive) | > 100 µM (inactive) | > 100 µM (inactive) | > 100 µM (inactive) | > 100 µM (inactive) | > 100 µM (inactive) | > 100 µM (inactive) | > 100 µM (inactive) | > 100 µM (inactive) | > 100 µM (inactive)
O=C(OC(/C=C/c1ccccc1)P1(=O)N(Cc2ccccc2)[C@@H]2CCCC[C@H]2N1Cc1ccccc1)c1ccccc1 (stereo partly specified) | 3.16 µM (inactive) | 3.52 µM (inactive) | 3.94 µM (inactive) | 5.3 µM (inactive) | 3.57 µM (inactive) | 3.03 µM (inactive) | 4.9 µM (inactive) | 4.09 µM (inactive) | 3.37 µM (inactive) | 4.56 µM (inactive) | 2.81 µM (inactive) | 2.91 µM (inactive) | 3.93 µM (inactive) | 2.82 µM (inactive) | 5.38 µM (inactive) | 3.09 µM (inactive) | 3.17 µM (inactive) | 3.4 µM (inactive) | 3.66 µM (inactive)
Nc1ncnc2oc(C3OC(COC(=O)c4ccccc4)C(OC(=O)c4ccccc4)C3OC(=O)c3ccccc3)nc12 (stereo unspecified) | 98.6 µM (inactive) | > 100 µM (inactive) | > 100 µM (inactive) | 74.8 µM (inactive) | > 100 µM (inactive) | > 100 µM (inactive) | > 100 µM (inactive) | > 100 µM (inactive) | > 100 µM (inactive) | > 100 µM (inactive) | > 100 µM (inactive) | > 100 µM (inactive) | > 100 µM (inactive) | > 100 µM (inactive) | > 100 µM (inactive) | > 100 µM (inactive) | > 100 µM (inactive) | > 100 µM (inactive) | > 100 µM (inactive)
FC(F)(F)c1ccc(C2ON=C(c3ccccc3)N2C23CC4CC(CC(C4)C2)C3)cc1 (stereo unspecified) | > 10 µM (inactive) | 1.39 µM (inactive) | > 10 µM (inactive) | > 10 µM (inactive) | > 10 µM (inactive) | > 10 µM (inactive) | > 10 µM (inactive) | > 10 µM (inactive) | > 10 µM (inactive) | > 10 µM (inactive) | > 10 µM (inactive) | > 10 µM (inactive) | > 10 µM (inactive) | > 10 µM (inactive) | > 10 µM (inactive) | > 10 µM (inactive) | > 10 µM (inactive) | > 10 µM (inactive) | > 10 µM (inactive)
CCN(CC)CCNc1ccc2ncn3c4cc(OC)c(OC)c(O)c4c(=O)c1c23 | 6.52 µM (inactive) | 2.88 µM (inactive) | 11.9 µM (inactive) | 16.6 µM (inactive) | 7 µM (inactive) | 6.47 µM (inactive) | 10.5 µM (inactive) | 10.4 µM (inactive) | 5.89 µM (inactive) | 16 µM (inactive) | 1.29 µM (inactive) | 1.39 µM (inactive) | 13 µM (inactive) | 5.93 µM (inactive) | 11.4 µM (inactive) | 2.69 µM (inactive) | 9.06 µM (inactive) | 3.8 µM (inactive) | 10 µM (inactive)
